These results are taken from PMC4019636, “Rational Design of Berberine-Based FtsZ Inhibitors with Broad-Spectrum Antibacterial Activity” (PLoS ONE, 2014).

The subject of this assay is B. subtilis strain 168 cells. Briefly: Bacterial morphology and membrane staining studies. The note with it: 4 µM compound. The class given is cell-based. As to the method: The B. subtilis strain 168 cells were grown in LB medium. The cultures at an A600 of 0.01 from an overnight culture were inoculated in the same medium containing different concentrations of the test compounds and grown at 37°C for 4 h. The cells for morphology studies were harvested and resuspended in 100 µL of PBS (phosphate buffered saline) buffer containing 0.25% agarose. For membrane staining, the B. subtilis cells were further incubated with 1.6 µM of FM 4–64 for an additional 30 min at 37°C without shaking before harvested and resuspended in 100 µL PBS buffer containing 0.25% agarose. 10 µL of the suspension mixture were then placed on a microscopic slide pretreated with 0.1% (w/v) poly-L-lysine and the morphology of the bacterial cells was observed under a phase-contrast optical microscope at 40× magnification. The images were captured using an Olympus Bio Imaging Navigator FSX 100 microscope.

The structures appear in SMILES notation.

Consider `COc1ccc2cc3[n+](cc2c1OCCCOc1ccc(Cl)cc1)CCc1cc2c(cc1-3)OCO2` [Compound 2], for which the “cell length of B. subtilis” value (4 h at 37°C, compared to untreated cells) was “significantly increased”. For the same molecule, where the note is “B. subtilis 168, compared to untreated cells”, the “perturbation of the cell membrane (FM 4-64 staining)” value is recorded as “did not induce any detectable perturbation”.
